Experiments:
[1] = Inhibition of Sporosarcina pasteurii CCM 2056 urease using urea as substrate after 10 mins by indophenol blue detection based phenol-hypochlorite method
[2] = Inhibition of Sporosarcina pasteurii CCM 2056 urease using urea as substrate preincubated for 2 hrs by indophenol blue detection based phenol-hypochlorite method
[3] = Inhibition of Proteus mirabilis PCM543 urease using urea as substrate preincubated for 2 hrs by indophenol blue detection based phenol-hypochlorite method
Proteus mirabilis = test: Antimicrobial activity against Proteus mirabilis PCM543 assessed as inhibition of microbial proliferation preincubated for 2 hrs by MTT assay; assay type: functional
[4] = Mixed type inhibition of Sporosarcina pasteurii CCM 2056 urease using urea as substrate preincubated for 2 hrs by indophenol blue detection based phenol-hypochlorite method
Sporosarcina pasteurii [5] = test: Slow binding inhibition of Sporosarcina pasteurii CCM 2056 urease assessed as dissociation rate constant using urea as substrate after 120 mins by indophenol blue detection based phenol-hypochlorite method
Sporosarcina pasteurii [6] = test: Slow binding inhibition of Sporosarcina pasteurii CCM 2056 urease assessed as residence time using urea as substrate after 120 mins by indophenol blue detection based phenol-hypochlorite method

O=C(O)/C(=C/c1ccc(Cl)cc1)CCCP(=O)(O)O
IC50 [1]: 2.49 µM
IC50 [2]: 1.62 µM
IC50 [3]: 18.6 µM
LC50 (Proteus mirabilis): 122 µM
Ki [4]: 1.43 µM

Cc1ccc(/C=C(\CCCP(=O)(O)O)C(=O)O)cc1
IC50 [1]: 30 µM
IC50 [2]: 24.6 µM
IC50 [3]: 156 µM
LC50 (Proteus mirabilis): 139 µM
Ki [4]: 19.4 µM

COC(=O)/C(=C/c1ccc(Cl)cc1)CCCP(=O)(O)O
IC50 [1]: 109 µM
IC50 [2]: 49.8 µM
IC50 [3]: 521 µM
LC50 (Proteus mirabilis): 89.6 µM
Ki [4]: 42.5 µM

COC(=O)/C(=C/c1ccc(OC)cc1)CCCCP(=O)(O)O
IC50 [1]: 24.5 µM
IC50 [2]: 22.6 µM
IC50 [3]: 162 µM
LC50 (Proteus mirabilis): 160 µM
Ki [4]: 21.4 µM

COc1ccc(/C=C(\CCCCP(=O)(O)O)C(=O)O)cc1
IC50 [1]: 16.6 µM
IC50 [2]: 14.5 µM
IC50 [3]: 114 µM
LC50 (Proteus mirabilis): 28.6 µM
Ki [4]: 9.31 µM

O=C(O)/C(=C/c1ccc(F)cc1)CCCP(=O)(O)O
IC50 [1]: 4.9 µM
IC50 [2]: 3.82 µM
IC50 [3]: 38 µM
LC50 (Proteus mirabilis): 121 µM
Ki [4]: 1.8 µM

COC(=O)/C(=C/c1ccc(F)cc1)CCCCP(=O)(O)O
IC50 [1]: 164 µM
IC50 [2]: 130 µM
IC50 [3]: 630 µM
LC50 (Proteus mirabilis): 1060 µM
Ki [4]: 116 µM

COC(=O)/C(=C/c1ccc(F)cc1)CCCP(=O)(O)O
IC50 [1]: 221 µM
IC50 [2]: 105 µM
IC50 [3]: 735 µM
LC50 (Proteus mirabilis): 215 µM
Ki [4]: 87.2 µM

COC(=O)/C(=C/c1ccc(C)cc1)CCCCP(=O)(O)O
IC50 [1]: 294 µM
IC50 [2]: 261 µM
IC50 [3]: 1550 µM
LC50 (Proteus mirabilis): 659 µM
Ki [4]: 219 µM

COC(=O)/C(=C/c1ccccc1)CCCCP(=O)(O)O
IC50 [1]: 55 µM
IC50 [2]: 54 µM
IC50 [3]: 476 µM
LC50 (Proteus mirabilis): 469 µM
Ki [4]: 50.5 µM

O=C(O)/C(=C/c1ccccc1)CCCCP(=O)(O)O
IC50 [1]: 4.89 µM
IC50 [2]: 3.83 µM
IC50 [3]: 32.6 µM
LC50 (Proteus mirabilis): 97.6 µM
Ki [4]: 3.51 µM

O=C(O)/C(=C/c1ccccc1)CCCP(=O)(O)O
IC50 [1]: 3.1 µM
IC50 [2]: 0.743 µM
IC50 [3]: 11 µM
LC50 (Proteus mirabilis): 135 µM
K (Sporosarcina pasteurii [5]): 0.000682 s⁻¹
TIME (Sporosarcina pasteurii [6]): 0.407 h
Ki [4]: 0.509 µM

Cc1ccc(/C=C(\CCCCP(=O)(O)O)C(=O)O)cc1
IC50 [1]: 9.24 µM
IC50 [2]: 8.53 µM
IC50 [3]: 52.6 µM
LC50 (Proteus mirabilis): 49.8 µM
Ki [4]: 7.21 µM

COC(=O)/C(=C/c1ccc(OC)cc1)CCCP(=O)(O)O
IC50 [1]: 35.3 µM
IC50 [2]: 10.8 µM
IC50 [3]: 75.1 µM
LC50 (Proteus mirabilis): 236 µM
K (Sporosarcina pasteurii [5]): 0.00244 s⁻¹
TIME (Sporosarcina pasteurii [6]): 0.114 h
Ki [4]: 6.04 µM

O=C(O)/C(=C/c1ccc(F)cc1)CCCCP(=O)(O)O
IC50 [1]: 9.98 µM
IC50 [2]: 2.91 µM
IC50 [3]: 14.1 µM
LC50 (Proteus mirabilis): 192 µM
K (Sporosarcina pasteurii [5]): 0.00135 s⁻¹
TIME (Sporosarcina pasteurii [6]): 0.206 h
Ki [4]: 2.58 µM

COC(=O)/C(=C/c1ccccc1)CCCP(=O)(O)O
IC50 [1]: 449 µM
IC50 [2]: 328 µM
IC50 [3]: 1590 µM
LC50 (Proteus mirabilis): 556 µM
Ki [4]: 289 µM

COC(=O)/C(=C/c1ccc(C)cc1)CCCP(=O)(O)O
IC50 [1]: 265 µM
IC50 [2]: 248 µM
IC50 [3]: 1430 µM
LC50 (Proteus mirabilis): 292 µM
Ki [4]: 227 µM

O=C(O)/C(=C/c1ccc(Cl)cc1)CCCCP(=O)(O)O
IC50 [1]: 5.83 µM
IC50 [2]: 2.34 µM
IC50 [3]: 22.2 µM
LC50 (Proteus mirabilis): 435 µM
Ki [4]: 1.75 µM

COc1ccc(/C=C(\CCCP(=O)(O)O)C(=O)O)cc1
IC50 [1]: 10 µM
IC50 [2]: 4.98 µM
IC50 [3]: 39.7 µM
LC50 (Proteus mirabilis): 65.2 µM
Ki [4]: 3.4 µM

COC(=O)/C(=C/c1ccc(Cl)cc1)CCCCP(=O)(O)O
IC50 [1]: 58.3 µM
IC50 [2]: 6.35 µM
IC50 [3]: 27.4 µM
LC50 (Proteus mirabilis): 638 µM
K (Sporosarcina pasteurii [5]): 0.00206 s⁻¹
TIME (Sporosarcina pasteurii [6]): 0.135 h
Ki [4]: 4.71 µM
